The results in this text go back to US20170216360A1, “METHODS AND COMPOSITIONS FOR IMPROVING HOMING OF CELLS INCLUDING MESENCHYMAL STEM CELLS” (SANOFI, priority 2014, published 2017).

Entries after “also recorded” stand apart in the source; their conditions may differ. Counter-ions that a name gives are not always drawn.

The subject of series [1] is human mesenchymal stem cells. Briefly: In vitro functional firm adhesion assay of cells (Table 3, coating not stated). The following applies: for Firm adhesion, Percent increase: relative to untreated and/or negative control MSCs. Type of series: cell-based. Details: key to Result, in vitro Firm Adhesion: NA = negative activity result; A = positive activity result. The protocol: (§1) Cell adhesion experiments were performed using Bioflux1000 (FluxionBio), allowing accurate control over shear flow. A special 48-well plate was used, in which a microfluidic channel (350 μm×70 μm) connects each pair of adjacent wells (termed inlet and outlet wells). The plate was placed under vacuum and the channels were coated from the inlet with recombinant human E-selectin (5 μg/mL) or ICAM-1 (5 μg/mL) and incubated at 37° C. for 1 h. Prior to introducing the cells into the channel, a wash with PBS−/− from the outlet well was performed for 5 min. Compound-pretreated MSCs were introduced into the channel, followed by attachment period of 2 minutes (no flow applied during the attachment period). Attached cells were then subjected to increasing shear flow, ranging from 0.25 dynes/cm^2 for up to 10 dynes/cm^2. Images were acquired using the Montage software and cell adhesion to the coated channels following subjection to shear flow was examined. See also disclosure elsewhere herein.
(§2) 1. Obtain preferred channel coating (protein/cell monolayer). 2. Prepare cell suspension (same concentrations detailed above for different cell types). 3. Add 50 μl of cell suspension to outlet well. 4. Introduce cells into channel by applying shear force of 2 dynes/cm^2 (cells should be observed within 10-15 sec flowing from outlet to inlet). 5. Once cells are observed in the channel, stop the flow and allow the introduced cells to sit for different time periods ranging from 30 seconds to 5 minutes. 6. Following this settling period, apply shear force starting from 0.5 dynes/cm^2 up to 10 dynes/cm^2 and acquire videos using stream acquisition. 7. Cell quantification is then performed using the Montage software—percentage of cells adhered, rolled or washed away after applying shear flow should be quantified.

Series [2] deals with MSC firm adhesion to E-selectin-coated surface. Briefly: E-selectin firm adhesion assay under shear flow, with antibody blocking. It counts as cell-based, human. The following applies: 3 μM for 24 h. The protocol: as §1
Pre-confluent MSCs were incubated for 24 hours with the indicated small molecules (3 μM). MSCs were than detached, washed and incubated for 30 minutes with an antibody reagent. The following antibodies are used: anti-human CD11a (clone: HI111), anti-human CD90 (clone: MAB2067), mouse anti-human CD11a (clone: TS1/22), and mouse IgG1 isotype control. Cells were then introduced into the channel and given 2 minutes to adhere before being subjected to increasing shear flow for a firm adhesion assay on a microfluidic channel coated with E-selectin or ICAM-1.
as §2

The subject of series [3] is LPS-induced inflamed mouse ear. As to the kind of experiment: In vivo MSC homing to LPS-induced inflamed ear after systemic infusion, intravital microscopy. The following applies: for Increase of MSC homing to inflamed ear (%): relative to untreated cells; for MSC homing to the inflamed ear in vivo, result in words: vs vehicle-treated control. Also on record: key to In vivo functional assay (homing): NA = negative activity result; A = positive activity result. The protocol: C57BL/6 mice (Charles River Laboratories, Wilmington, Mass.) were anesthetized with ketamine/xylazine and their ears shaved 24 h prior to cell infusion. To induce an inflammatory response, 30 μg of E. coli lipopolysaccharide (LPS, Sigma, St. Louis, Mo.) in 50 μL saline was injected into the pinna of the left ear, with 50 μL 0.9% saline injected into the right ear as a control. For in vivo dye sensitivity validation, 1×10e6 cells of each stain were suspended in 150 μL PBS (pH 7.4) and injected by retro-orbital vein infusion.
To evaluate the minimum number of cells needed for a reproducible response, each mouse (n=4) received a range of cell doses (10,000, 50,000, 100,000, or 500,000) each of cells stained with Dil or DiD with a dye switch (i.e., dyes used for experimental and control cells were alternated to prevent bias based on the dyes that were used). To evaluate the impact of small molecule hit pre-treatment on MSC homing to the inflamed ear, MSCs were incubated with 3 μM of the small molecule hit or 0.1% DMSO as a control for 24 h before staining and in vivo administration. To highlight the vasculature, 50 μL of 10 mg/mL FITC-dextran ([…]; Sigma, St. Louis, Mo.) was injected retro-orbitally prior to imaging.
In vitro staining and in vivo homing of stained MSCs to the skin was imaged noninvasively in real time using a custom-built video-rate laser-scanning confocal microscope designed specifically for live animal imaging. For in vivo imaging, the mouse ear was positioned under a coverslip with methylcellulose gel and images acquired at 30 frames per second at a depth up to 200 μm using a 60×1.0NA water immersion objective lens (Olympus, Center Valley, Pa.). DiO labeled MSCs were excited with a 491 nm continuous wave (CW) laser (Cobalt, Stockholm, Sweden), and detected through a 520±20 nm bandpass filter (Semrock, Inc., Rochester, N.Y.). Dil labeled MSCs were excited with a 561 nm CW laser (Coherent, Inc., Santa Clara, Calif.) and detected through a 593 nm±40 nm filter (Omega Optical, Brattleboro, Vt.). DiD labeled MSCs were excited with a 635 nm CW laser (Coherent, Inc., Santa Clara, Calif.) and detected through a 695 nm±27.5 nm band pass filter (Omega Optical, Brattleboro, Vt.). DiR labeled MSCs were excited using a femtosecond Ti:Sapphire Maitai source for single photon excitation at 750 nm (Spectra Physics, Santa Clara, Calif.) and collected through a 785 nm±31 nm band pass filter (Omega Optical, Brattleboro, Vt.).
For quantification, the average number of cells in 20 representative imaging locations across the inflamed region was counted in each mouse. Cells were defined as having a diameter from 10-30 μm to eliminate debris and clumps from analysis, and a primary channel intensity greater than 2 to eliminate autofluorescent events. The average relative detection sensitivity (ratio of Dil/DiD counts) determined in the overall dye efficiency experiments were used to scale the counts for DiD stained cells. […] For multiple comparisons, Tukey's HSD test was used. Error bars in graphs represent standard error, and statistical significance is denoted by * p<0.05.

The test system of series [4] is human mesenchymal stromal cells (MSCs). As to the kind of experiment: Cell viability assay, IncuCyte FLR with Yoyo-1 dye (membrane integrity). It counts as cell-based. The following applies: 24 hours pretreatment. The protocol:
Cell viability experiments were performed using the IncuCyte FLR (Essen Bioscience). Cells were stained with a cell impermeant cyanine dimer nucleic acid stain (Yoyo-1, Life Technologies). This fluorescent dye was used to measure cell membrane integrity. Pre-confluent human mesenchymal stromal cells (MSCs) were incubated for 24 hours with both the indicated small molecules […]. To kinetically measure MSC membrane integrity, images were acquired every two hours using an IncuCyte FLR live-cell image imaging system.

[5] abbreviates: MSCs pretreated 3 μM 24 h, 24 h after infusion.

For the compound `CCc1c2c(nc3ccc(OC(=O)N4CCC(N5CCCCC5)CC4)cc13)-c1cc3c(c(=O)n1C2)COC(=O)[C@]3(O)CC` [Compound 1927, reference compound], the “Firm adhesion, Percent increase” value in series [1] was found to be 22%. Moreover, the “Effect of antibody blocking of CD11a or CD90 on firm adhesion” value in series [2] (E-selectin) is on record as “no effect”. Moreover, in series [2] (vs vehicle-treated MSCs), the “MSC firm adhesion to E-selectin-coated substrates, result in words” value is recorded as “did not improve”. Besides, the “MSC homing to skin in the inflamed ear, average cells” value in series [3] (setting [5]) was determined as 47.2±20.4 cells/cm^2. Further, in series [3], the “Increase of MSC homing to inflamed ear (%)” value was determined as 0% and the “MSC homing to the inflamed ear in vivo, result in words” value was “no impact; also recorded: did not affect MSC homing”. Further, the MSC viability entry in series [4] is on record as “did not modify MSC viability”.

With `Cn1cc(C2=C(c3c4n(c5ccccc35)CCC(CN)C4)C(=O)NC2=O)c2ccccc21` (stereo not drawn) [Compound 1929, 3-(8-aminomethyl-6,7,8,9-tetrahydro-pyrido[1,2-a]indol-10-yl)-4-(1-methyl-1H-indol-3-yl)-pyrrole-2,5-dione hydrochloride], the “Result, in vitro Firm Adhesion” value in series [1] (pretreated huMSCs) is listed as “A”. Moreover, the “Firm adhesion, Percent increase” value in series [1] (hydrochloride) is reported as 88%. Moreover, in series [2], the “Adhered cells on E-selectin-coated surface before CD11a blocking” value is reported as around 90% and the “Firm adhesion to E-selectin of pretreated MSC compared to control MSCs” value was 3 fold. In series [2] (CD11a blocking antibody 30 minutes), the “Adhered cells on E-selectin-coated surface following CD11a blocking” value is listed as 50%. Besides, in series [2] (E-selectin), the “Effect of antibody blocking of CD90 on firm adhesion” value is given as “no effect”. Also, in series [3] (setting [5]), the “Increase of MSC homing to inflamed ear compared to vehicle-treated MSCs” value turned out to be 69.3±11.3% and the “MSC homing to skin in the inflamed ear, average cells” value is 78.5±15.9 cells/cm^2. The “Increased homing versus vehicle-treated MSCs, without CD11a blocking” value in series [3] (inflamed ear) stood at 70%. Further, the “Increased homing versus vehicle-treated MSCs, CD11a blocked prior to infusion” value in series [3] (inflamed ear, anti-human CD11a clone TS1/22) is listed as “less than 10%”. Besides, the “Increase of MSC homing to inflamed ear (%)” value in series [3] (hydrochloride) is recorded as 73%. The “In vivo functional assay (homing)” value in series [3] (systemic administration of pretreated huMSCs) is on record as “A”. In addition, in series [3], the “MSC homing to the inflamed ear in vivo, result in words” value is “significantly promoted MSC homing”. Also, in series [4], the MSC viability entry was “did not modify MSC viability”.
